Experiments:
Avena fatua (AVEFA) [1] = assay: Example A glasshouse herbicide test, post-emergence, AVEFA; type: in vivo; conditions: Avena fatua, post-emergence, 312 h, Rate 250 g/ha, sprayed after 8 days cultivation, evaluated after 13 days, read-out: Post-Emergence Activity AVEFA (100=total damage to plant; 0=no damage to plant)
Method in brief: (§1)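 Pot-grown plants sprayed 1 day (pre-emergence) or 8 days (post-emergence) after sowing with active ingredient in acetone/water (50:50) containing 0.5% Tween 20. Glasshouse conditions 24/16° C. day/night, 14 h light, 65% humidity; damage scored 13 days later on a 0 (none) to 100 (total) scale.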

[2] = system: Winter Wheat variety 'Hereward'; assay: Example B crop damage test, post-emergence, wheat seed treated with safener cloquintocet mexyl; type: in vivo; conditions: Rate 250 g/ha; post-emergence spray 8 days after sowing; seed treated with cloquintocet mexyl 0.5 g/kg dry seed; evaluated after 13 days
Method in brief: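 Wheat seed pre-treated with cloquintocet mexyl at 0.5 g/kg seed, sown 8 days before post-emergence spraying of compound in acetone/water (50:50) with 0.5% Tween 20. Glasshouse at 24/16° C, 14 h light, 65% humidity. Damage scored visually after 13 days, 0 (none) to 100 (total).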

[3] = system: Alopecurus myosuroides (ALOMY); assay: Example A glasshouse herbicide test, pre-emergence, ALOMY; type: in vivo; conditions: Alopecurus myosuroides, pre-emergence, 312 h, Rate 250 g/ha, sprayed after cultivation for one day, evaluated after 13 days, read-out: Pre-Emergence Activity ALOMY (100=total damage to plant; 0=no damage to plant)
Method in brief: as §1

Lolium perenne (LOLPE) [4] = assay: Example A glasshouse herbicide test, pre-emergence, LOLPE; type: in vivo; conditions: Lolium perenne, pre-emergence, 312 h, Rate 250 g/ha, sprayed after cultivation for one day, evaluated after 13 days, read-out: Pre-Emergence Activity LOLPE (100=total damage to plant; 0=no damage to plant)
Method in brief: as §1

Avena fatua (AVEFA) [5] = assay: Example A glasshouse herbicide test, pre-emergence, AVEFA; type: in vivo; conditions: Avena fatua, pre-emergence, 312 h, Rate 250 g/ha, sprayed after cultivation for one day, evaluated after 13 days, read-out: Pre-Emergence Activity AVEFA (100=total damage to plant; 0=no damage to plant)
Method in brief: as §1

[6] = system: Echinochloa crus-galli (ECHCG); assay: Example A glasshouse herbicide test, post-emergence, ECHCG; type: in vivo; conditions: Echinochloa crus-galli, post-emergence, 312 h, Rate 250 g/ha, sprayed after 8 days cultivation, evaluated after 13 days, read-out: Post-Emergence Activity ECHCG (100=total damage to plant; 0=no damage to plant)
Method in brief: as §1

Lolium perenne (LOLPE) [7] = assay: Example A glasshouse herbicide test, post-emergence, LOLPE; type: in vivo; conditions: Lolium perenne, post-emergence, 312 h, Rate 250 g/ha, sprayed after 8 days cultivation, evaluated after 13 days, read-out: Post-Emergence Activity LOLPE (100=total damage to plant; 0=no damage to plant)
Method in brief: as §1

[8] = system: Echinochloa crus-galli (ECHCG); assay: Example A glasshouse herbicide test, pre-emergence, ECHCG; type: in vivo; conditions: Echinochloa crus-galli, pre-emergence, 312 h, Rate 250 g/ha, sprayed after cultivation for one day, evaluated after 13 days, read-out: Pre-Emergence Activity ECHCG (100=total damage to plant; 0=no damage to plant)
Method in brief: as §1

[9] = system: Winter Wheat variety 'Hereward'; assay: Example B crop damage test, post-emergence, unsafened wheat; type: in vivo; conditions: Rate 250 g/ha; post-emergence spray after 8 days cultivation; no safener; evaluated after 13 days
Method in brief: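 Winter wheat 'Hereward' was sprayed post-emergence 8 days after sowing, using formulated active ingredient in acetone/water (50:50) with 0.5% Tween 20. Plants grew in a glasshouse at 24/16 °C day/night, 14 h light and 65% humidity. Damage was scored 13 days later (0 = none, 100 = total).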

[10] = system: Alopecurus myosuroides (ALOMY); assay: Example A glasshouse herbicide test, post-emergence, ALOMY; type: in vivo; conditions: Alopecurus myosuroides, post-emergence, 312 h, Rate 250 g/ha, sprayed after 8 days cultivation, evaluated after 13 days, read-out: Post-Emergence Activity ALOMY (100=total damage to plant; 0=no damage to plant)
Method in brief: as §1

Row | SMILES | pest or weed control at 250 g/ha (Avena fatua (AVEFA) [1]) [%] | Winter Wheat (Hereward) + cloquintocet mexyl damage (100=total damage to plant; 0=no damage to plant) [2] | pest or weed control at 250 g/ha [3] [%] | pest or weed control at 250 g/ha (Lolium perenne (LOLPE) [4]) [%] | pest or weed control at 250 g/ha (Avena fatua (AVEFA) [5]) [%] | pest or weed control at 250 g/ha [6] [%] | pest or weed control at 250 g/ha (Lolium perenne (LOLPE) [7]) [%] | melting point [°C] | pest or weed control at 250 g/ha [8] [%] | Winter Wheat (Hereward) damage (100=total damage to plant; 0=no damage to plant) [9] | pest or weed control at 250 g/ha [10] [%]
1 | Cc1cc(C)cc(CC2CC(=O)C(c3c(C)cc(C)cc3C)C2=O)c1 (stereo not drawn) [Compound A21] | 20 | 20 | 60 | 100 | 20 | 60 | 30 | 181 to 184 | 90 | 20 | 40
2 | COc1ccc(CC2CC(=O)C(c3c(C)cc(C)cc3C)C2=O)cc1 (stereo not drawn) [Compound A24] | 90 | 10 | 90 | 100 | 80 | 30 | 80 | 197.3 to 197.6 | 80 | 40 | 80
3 | Cc1cc(C)c(C2C(=O)CC(Cc3ccccc3C)C2=O)c(C)c1 (stereo not drawn) [Compound A15] | 50 | 20 | 70 | 100 | 70 | 40 | 90 | 210 to 215.5 | 60 | 30 | 80
4 | Cc1cc(C)c(C2C(=O)CC(Cc3ccc(S(C)(=O)=O)cc3)C2=O)c(C)c1 (stereo not drawn) [Compound A23] | 90 | 50 | 90 | 100 | 80 | 90 | 50 | 235.3 to 238.6 | 90 | 50 | 90
5 | Cc1cccc(CC2CC(=O)C(c3c(C)cc(C)cc3C)C2=O)c1 (stereo not drawn) [Compound A18] | 50 | 10 | 80 | 100 | 50 | 50 | 90 | 173 to 179 | 100 | 20 | 80
6 | Cc1cc(C)c(C2C(=O)CC(Cc3ccccc3F)C2=O)c(C)c1 (stereo not drawn) [Compound A14] | 30 | 20 | 70 | 100 | 40 | 80 | 90 | 197.8 to 210.2 | 90 | 30 | 80
7 | Cc1cc(C)c(C2C(=O)CC(Cc3ccc(-c4csnn4)cc3)C2=O)c(C)c1 (stereo not drawn) [Compound A16] | 50 | – | 10 | 70 | 30 | 50 | 30 | 225 to 232 | 80 | – | 20
8 | Cc1cc(C)c(C2C(=O)CC(Cc3cc(F)cc(F)c3)C2=O)c(C)c1 (stereo not drawn) [Compound A20] | 30 | 0 | 30 | 100 | 20 | 50 | 50 | 193 to 193.2 | 80 | 10 | 20
9 | Cc1cc(C)c(C2C(=O)CC(Cc3ccc(CS(=O)(=O)c4ccccc4)cc3)C2=O)c(C)c1 (stereo not drawn) [Compound A22] | 10 | – | 0 | 20 | 0 | 20 | 20 | 189 to 191.7 | 30 | – | 0
10 | Cc1cc(C)c(C2C(=O)CC(Cc3cccc(Oc4ccccc4)c3)C2=O)c(C)c1 (stereo not drawn) [Compound A13] | 30 | – | 10 | 40 | 0 | 20 | 20 | 192 to 194.8 | 20 | – | 30
11 | Cc1cc(C)c(C2C(=O)CC(Cc3ccccc3)C2=O)c(C)c1 (stereo not drawn) [Compound A17] | 40 | 10 | 50 | 90 | 30 | 60 | 80 | 160 to 165 | 70 | 10 | 80
12 | Cc1cc(C)c(C2C(=O)CC(Cc3ccc(C#N)cc3)C2=O)c(C)c1 (stereo not drawn) [Compound A19] | 60 | 10 | 80 | 90 | 40 | 90 | 90 | 249 to 251 | 100 | 60 | 90

Source: US8791303B2, “Herbicides” (Syngenta Limited, priority 2009, dated 2014)
